{"source": "PubChem BioAssay AID330", "about": "(DTP/NCI, 2004)", "tested_on": "P388 leukemia ip, CD2F1 mice, survival T/C", "assay": "NCI In Vivo Anticancer Drug Screen. Data for tumor model P388 Leukemia (intraperitoneal) in CD2F1 (CDF1) mice", "conditions": "endpoint: median survival time, higher = longer survival", "method_in_brief": "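Mice carrying the transplanted tumor received test compound or vehicle. Survival was recorded in each group, and the value is the treated-group measurement divided by that of the vehicle-treated control group.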", "key": {"[1]": {"conditions": "dose: 100.0 mg/kg/injection, schedule: Q01DX009 (ip), vehicle: Klucel (hydroxypropylcellulose) (HPC)"}, "[2]": {"conditions": "dose: 200.0 mg/kg/injection, schedule: Q01DX009 (ip), vehicle: Klucel (hydroxypropylcellulose) (HPC)"}}, "note": "Values joined by “and” are separate entries in the source; they are usually repeats but may differ in a detail not shown here. Equal values may be shown once. Toxic doses and inconclusive results are not listed.", "data": [{"smiles": "CC(C)(Oc1ccc(-c2cccc3ccccc23)cc1)C(=O)O", "values": [{"measurement": "T/C", "setting": "dose: 6.25 mg/kg/injection, schedule: Q01DX009 (ip), vehicle: Klucel (hydroxypropylcellulose) (HPC)", "result": "97 % of control"}, {"measurement": "T/C", "setting": "dose: 12.5 mg/kg/injection, schedule: Q01DX009 (ip), vehicle: Klucel (hydroxypropylcellulose) (HPC)", "result": "95 % of control"}, {"measurement": "T/C", "setting": "dose: 25.0 mg/kg/injection, schedule: Q01DX009 (ip), vehicle: Klucel (hydroxypropylcellulose) (HPC)", "result": "101 % of control"}, {"measurement": "T/C", "setting": "[1]", "result": "111 % of control"}, {"measurement": "T/C", "setting": "[2]", "result": "119 % of control"}]}, {"smiles": "CC(C)=CC[P+](CP(c1ccccc1)c1ccccc1)(c1ccccc1)c1ccccc1", "values": [{"measurement": "T/C", "setting": "dose: 3.12 mg/kg/injection, schedule: Q01DX005 (ip), vehicle: saline with Tween-80", "result": "107 % of control"}, {"measurement": "T/C", "setting": "dose: 6.25 mg/kg/injection, schedule: Q01DX005 (ip), vehicle: saline with Tween-80", "result": "105 % of control"}, {"measurement": "T/C", "setting": "dose: 12.5 mg/kg/injection, schedule: Q01DX005 (ip), vehicle: saline with Tween-80", "result": "89 % of control"}]}, {"smiles": "CCOC(CSCC#N)OCC", "values": [{"measurement": "T/C", "setting": "dose: 12.5 mg/kg/injection, schedule: Q01DX009 (ip), vehicle: saline sonified", "result": "100 % of control"}, {"measurement": "T/C", "setting": "dose: 25.0 mg/kg/injection, schedule: Q01DX009 (ip), vehicle: saline sonified", "result": "95 % of control"}, {"measurement": "T/C", "setting": "dose: 50.0 mg/kg/injection, schedule: Q01DX009 (ip), vehicle: saline sonified", "result": "100 % of control"}]}, {"smiles": "CCOC(=O)NC1=C(N2CC2)C(=O)C(NC(=O)OCC)=C(N2CC2)C1=O", "values": [{"measurement": "T/C", "setting": "dose: 0.5 mg/kg/injection, schedule: Q01DX005 (iv), vehicle: saline", "result": "110 % of control"}, {"measurement": "T/C", "setting": "dose: 2.59 mg/kg/injection, schedule: Q04DX002 (ip), vehicle: saline", "result": "160 % of control"}, {"measurement": "T/C", "setting": "dose: 3.0 mg/kg/injection, schedule: Q01DX005 (ip), vehicle: saline with Tween-80", "result": "216 % of control"}, {"measurement": "T/C", "setting": "dose: 4.0 mg/kg/injection, schedule: Q01DX005 (ip), vehicle: saline", "result": "200 % of control"}, {"measurement": "T/C", "setting": "dose: 4.9 mg/kg/injection, schedule: Q01DX005 (ip), vehicle: saline with Tween-80", "result": "211 % of control and 259 % of control"}, {"measurement": "T/C", "setting": "dose: 8.0 mg/kg/injection, schedule: Q04DX003 (iv), vehicle: saline with Tween-80", "result": "160 % of control"}, {"measurement": "T/C", "setting": "dose: 8.1 mg/kg/injection, schedule: Q01DX005 (ip), vehicle: saline with Tween-80", "result": "75 % of control"}, {"measurement": "T/C", "setting": "dose: 12.0 mg/kg/injection, schedule: Q04DX002 (ip), vehicle: saline", "result": "277 % of control"}, {"measurement": "T/C", "setting": "dose: 22.5 mg/kg/injection, schedule: Q01DX001 (ip), vehicle: saline with Tween-80", "result": "62 % of control"}, {"measurement": "T/C", "setting": "dose: 37.5 mg/kg/injection, schedule: Q01DX001 (ip), vehicle: saline with Tween-80", "result": "100 % of control and 58 % of control"}]}, {"smiles": "O=C1NS(=O)(=O)Oc2ccccc2O1", "values": [{"measurement": "T/C", "setting": "dose: 50.0 mg/kg/injection, schedule: Q01DX005 (ip), vehicle: Klucel (hydroxypropylcellulose) (HPC)", "result": "107 % of control"}, {"measurement": "T/C", "setting": "dose: 100.0 mg/kg/injection, schedule: Q01DX005 (ip), vehicle: Klucel (hydroxypropylcellulose) (HPC)", "result": "100 % of control"}, {"measurement": "T/C", "setting": "dose: 200.0 mg/kg/injection, schedule: Q01DX005 (ip), vehicle: Klucel (hydroxypropylcellulose) (HPC)", "result": "95 % of control"}]}, {"smiles": "O.O=C(O)CN(CCN(CC(=O)O)CC(=O)O)CC(=O)O.[Rh+2]", "values": [{"measurement": "T/C", "setting": "dose: 100.0 mg/kg/injection, schedule: Q01DX009 (ip), vehicle: saline sonified", "result": "90 % of control"}, {"measurement": "T/C", "setting": "dose: 200.0 mg/kg/injection, schedule: Q01DX009 (ip), vehicle: saline sonified", "result": "90 % of control"}, {"measurement": "T/C", "setting": "dose: 400.0 mg/kg/injection, schedule: Q01DX009 (ip), vehicle: saline sonified", "result": "95 % of control"}]}, {"smiles": "C=CC(=O)NCCSSCCNC(=O)C=C", "values": [{"measurement": "T/C", "setting": "dose: 6.25 mg/kg/injection, schedule: Q01DX009 (ip), vehicle: saline with Tween-80", "result": "108 % of control"}, {"measurement": "T/C", "setting": "dose: 12.5 mg/kg/injection, schedule: Q01DX009 (ip), vehicle: saline with Tween-80", "result": "99 % of control"}, {"measurement": "T/C", "setting": "dose: 25.0 mg/kg/injection, schedule: Q01DX009 (ip), vehicle: saline with Tween-80", "result": "93 % of control"}, {"measurement": "T/C", "setting": "dose: 100.0 mg/kg/injection, schedule: Q01DX009 (ip), vehicle: saline with Tween-80", "result": "98 % of control"}]}, {"smiles": "CS(C)(=O)=Nc1ccc(F)cc1", "values": [{"measurement": "T/C", "setting": "dose: 100.0 mg/kg/injection, schedule: Q01DX001 (ip), vehicle: saline with Tween-80", "result": "99 % of control"}, {"measurement": "T/C", "setting": "dose: 200.0 mg/kg/injection, schedule: Q01DX001 (ip), vehicle: saline with Tween-80", "result": "99 % of control"}, {"measurement": "T/C", "setting": "dose: 400.0 mg/kg/injection, schedule: Q01DX001 (ip), vehicle: saline with Tween-80", "result": "99 % of control"}]}, {"smiles": "NC(=O)CNC(=O)NC(Cc1ccccc1)C(=O)O", "note": "(configuration not stated)", "values": [{"measurement": "T/C", "setting": "dose: 50.0 mg/kg/injection, schedule: Q01DX005 (ip), vehicle: saline with Tween-80", "result": "105 % of control"}, {"measurement": "T/C", "setting": "dose: 100.0 mg/kg/injection, schedule: Q01DX005 (ip), vehicle: saline with Tween-80", "result": "105 % of control"}, {"measurement": "T/C", "setting": "dose: 200.0 mg/kg/injection, schedule: Q01DX005 (ip), vehicle: saline with Tween-80", "result": "86 % of control"}]}, {"smiles": "CCc1nc(N)nc(N)c1-c1ccc(N2CCNCC2)c([N+](=O)[O-])c1", "values": [{"measurement": "T/C", "setting": "dose: 60.0 mg/kg/injection, schedule: Q01DX005 (ip), vehicle: saline with Tween-80", "result": "106 % of control"}, {"measurement": "T/C", "setting": "dose: 120.0 mg/kg/injection, schedule: Q01DX005 (ip), vehicle: saline with Tween-80", "result": "112 % of control"}]}, {"smiles": "NC(=O)CCCCCBr", "values": [{"measurement": "T/C", "setting": "dose: 50.0 mg/kg/injection, schedule: Q01DX009 (ip), vehicle: Klucel (hydroxypropylcellulose) (HPC)", "result": "98 % of control"}, {"measurement": "T/C", "setting": "[1]", "result": "95 % of control"}, {"measurement": "T/C", "setting": "[2]", "result": "90 % of control"}]}]}
